Assays:
[1] = biological target: Poly [ADP-ribose] polymerase 2 (Homo sapiens, UniProt Q9UGN5); assay: Biochemical (FP) Assay
Procedure: (§1) PARP1 and PARP2 protein were expressed, purified, and diluted in assay buffer containing 50 mM Tris pH 8.0, 0.001% Triton X-100, 10 mM MgCI2, 150 mM NaCI to a final concentration of 20 nM.

[2] = biological target: Poly [ADP-ribose] polymerase 1 (Homo sapiens, UniProt P09874); assay: Biochemical (FP) Assay
Procedure: as §1

Chain of Poly [ADP-ribose] polymerase 2 (Q9UGN5 whole entry): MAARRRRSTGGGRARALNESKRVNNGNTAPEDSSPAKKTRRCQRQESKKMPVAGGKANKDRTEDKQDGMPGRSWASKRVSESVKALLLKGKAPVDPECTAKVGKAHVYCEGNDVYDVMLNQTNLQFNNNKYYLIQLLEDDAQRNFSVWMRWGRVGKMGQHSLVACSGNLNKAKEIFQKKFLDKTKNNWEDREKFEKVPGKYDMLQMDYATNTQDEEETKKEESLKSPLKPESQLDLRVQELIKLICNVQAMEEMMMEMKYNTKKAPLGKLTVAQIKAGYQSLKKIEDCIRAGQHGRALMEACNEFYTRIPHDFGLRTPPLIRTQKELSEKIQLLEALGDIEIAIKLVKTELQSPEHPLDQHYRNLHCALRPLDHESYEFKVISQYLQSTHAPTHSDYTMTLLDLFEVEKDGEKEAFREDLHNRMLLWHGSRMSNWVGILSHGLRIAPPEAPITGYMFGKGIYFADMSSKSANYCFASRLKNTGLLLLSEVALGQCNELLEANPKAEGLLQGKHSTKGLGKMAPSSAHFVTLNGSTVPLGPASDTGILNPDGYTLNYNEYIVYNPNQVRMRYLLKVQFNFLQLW
Chain of Poly [ADP-ribose] polymerase 1 (P09874 whole entry): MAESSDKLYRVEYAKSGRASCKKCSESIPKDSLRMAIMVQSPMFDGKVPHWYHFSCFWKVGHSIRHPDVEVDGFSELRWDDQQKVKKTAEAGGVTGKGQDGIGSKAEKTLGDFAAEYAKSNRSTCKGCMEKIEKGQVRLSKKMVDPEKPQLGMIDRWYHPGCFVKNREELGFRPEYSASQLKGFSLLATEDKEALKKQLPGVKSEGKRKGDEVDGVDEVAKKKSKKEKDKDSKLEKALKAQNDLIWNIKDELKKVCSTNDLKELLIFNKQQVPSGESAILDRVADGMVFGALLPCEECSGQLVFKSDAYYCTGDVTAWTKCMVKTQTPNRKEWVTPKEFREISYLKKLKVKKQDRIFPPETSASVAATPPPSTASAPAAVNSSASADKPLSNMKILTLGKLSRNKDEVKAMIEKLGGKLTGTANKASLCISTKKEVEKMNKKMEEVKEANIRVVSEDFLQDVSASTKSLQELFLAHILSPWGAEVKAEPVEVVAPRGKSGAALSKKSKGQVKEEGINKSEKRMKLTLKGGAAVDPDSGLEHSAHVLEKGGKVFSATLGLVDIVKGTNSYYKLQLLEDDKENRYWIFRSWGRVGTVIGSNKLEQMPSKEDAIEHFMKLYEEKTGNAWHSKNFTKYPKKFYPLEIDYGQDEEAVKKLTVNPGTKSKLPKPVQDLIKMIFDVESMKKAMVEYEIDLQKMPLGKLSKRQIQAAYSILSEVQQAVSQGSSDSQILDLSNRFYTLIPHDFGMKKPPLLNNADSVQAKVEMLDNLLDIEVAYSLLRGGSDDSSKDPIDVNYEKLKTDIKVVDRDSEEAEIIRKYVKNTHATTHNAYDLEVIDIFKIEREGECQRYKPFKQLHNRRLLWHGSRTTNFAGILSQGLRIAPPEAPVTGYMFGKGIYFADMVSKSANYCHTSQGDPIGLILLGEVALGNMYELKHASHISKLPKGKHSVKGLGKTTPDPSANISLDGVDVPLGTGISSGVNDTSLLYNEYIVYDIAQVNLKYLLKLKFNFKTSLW

CNC(=O)c1ccc(N2CCN(Cc3cc(F)c4c5c(c(=O)[nH]c4c3)COC5)CC2)c(F)n1 [US11795173, Comp. Ex. 3]
IC50 [1]: > 100000 nM | IC50 [2]: 4.3 nM

CNC(=O)c1ccc(N2CCN(Cc3ccc4c5c(c(=O)[nH]c4c3)CCO5)CC2)c(Cl)n1 [US11795173, Comp. Ex. 2]
IC50 [1]: > 100000 nM | IC50 [2]: 4 nM

Reference: BindingDB's records for patent US11795173 (Xinthera, 2023)
